Source: patent US20130280279A1, “PHARMACEUTICAL COMPOSITION OF A COMPLEX OF AN ANTI-DIG ANTIBODY AND DIGOXIGENIN THAT IS CONJUGATED TO A PEPTIDE” (HOFFMANN-LA ROCHE INC., priority 2011, published 2013)
Each block holds one compound with its values, some of them ahead of it.

Assays:
NPY2 receptor = target: T1, NPY2 receptor (Homo sapiens, UniProt P49146); experiment: cAMP assay: inhibition of Forskolin stimulated cAMP accumulation in HEK293/hNPY2R; assay type: cell-based
T1 construct: expressed in transfected cells; host or cells: HEK293/hNPY2R (grown under G418 selection)
T1 sequence (P49146 1-381): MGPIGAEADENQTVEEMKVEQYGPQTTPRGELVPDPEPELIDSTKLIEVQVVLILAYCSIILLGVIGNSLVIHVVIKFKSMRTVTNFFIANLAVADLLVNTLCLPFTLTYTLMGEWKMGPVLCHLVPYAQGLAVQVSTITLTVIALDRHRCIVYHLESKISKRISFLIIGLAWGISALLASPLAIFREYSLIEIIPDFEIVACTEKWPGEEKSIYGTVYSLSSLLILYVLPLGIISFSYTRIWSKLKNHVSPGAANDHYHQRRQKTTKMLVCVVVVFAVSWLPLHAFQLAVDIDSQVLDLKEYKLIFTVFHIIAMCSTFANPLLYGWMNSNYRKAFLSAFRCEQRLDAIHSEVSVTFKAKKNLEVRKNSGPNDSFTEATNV
Method: To perform the assay, on the first day, medium was discarded, and the monolayer cells were washed with 10 mL PBS per flask (T225). […] The flask was gently tapped and the cell suspension was pooled. Each flask was rinsed with 10 mL plating medium and centrifuged at 1000 rpm for 5 min. The suspension was pooled and counted. […] The plates were incubated at 37° C. overnight. […] The media and reagents were allowed to come to room temperature. […] The cell medium was tapped off with a gentle inversion of the cell plate on a paper towel. 50 μL of stimulation medium was placed per well (each concentration done in four replicates). The plates were incubated at room temperature for 30 min, and the cells were checked under a microscope for toxicity. After 30 min of treatment, the stimulation media was discarded and 50 μL/well of Assay Lysis Buffer (provided in the Tropix kit) was added. […] 20 μL of the lysate was transferred from stimulation plates into the pre-coated antibody plates (384-well) from the Tropix kit. […] The plates were incubated at room temperature while shaking for 1 hour. […] The plates were tapped to dry. […] Signal for 1 sec/well in a Luminometer. (VICTOR-V) was measured.

[1] = tested on: diet-induced obese (DIO) mice; experiment: food intake in DIO (diet-induced-obesity) model; assay type: in vivo, C57Bl/6 mice; conditions: moPYY 11.05 μMol/kg, antibody-complexed DIG-moPYY 0.62 μMol/kg, up to 96 h post-dosing
Method: To determine the effect of NPY2-receptor agonists on food intake in these experiments we applied uncomplexed PYY-derived peptides and antibody complexed peptides to animals (adult male C57Bl/6 mice) in a DIO (diet-induced-obesity) model. The experiments were conducted on adult male C57Bl/6 mice obtained from Jackson laboratories. The mice were placed on a high fat diet (HFD; 60% of dietary kcal as fat, BioServe F3282) for over 20 weeks to induce obesity. The diet-induced obese (DIO) mice were sorted by body weight and 24 h food intake, and housed individually in standard caging at 22° C. in a reversed 12-h light/12-h dark cycle, and were acclimated to these conditions for at least 6 days before start of the experiment. Food (HFD) and water were provided ad libitum throughout the study. Ab-PYY3-37 fusion proteins and the vehicle controls were injected at the beginning of the dark cycle and food intake measured at various time intervals up to 96 h post-dosing (N=6-8 mice/group). Uncomplexed peptide moPYY was applied at concentration of 11.05 μMol/kg. Antibody-complexed DIG-moPYY was applied at a concentration of 0.62 μMol/kg. Thus, the injected molar concentration of the antibody complexed peptide was more than 17-fold lower than that of the uncomplexed peptide. […]

[2] = serum levels of Dig-peptide after i.v. application, Western Blot; assay type: in vivo, mice (strain NRMI)
Method: To generate Dig-Cy5 complexes, 886.1 nmol of lyophilized DIG-Cy5 were added to 446.4 nmol anti-DIG-Antibody in 20 mM Histidin/140 mM NaCl pH 6.0 in 4 portions within 1 h at RT, slowly shaking. After the addition of the last portion the sample was incubated for a total of 2 h. In case of the DIG-PYY complexes, 691.7 nmol of lyophilized DIG-PYY were added to 364 nmol anti-DIG-Antibody in 20 mM Histidin/140 mM NaCl pH 6.0 and treated equally as the DIG-Cy5 complexes. The samples were applied to a Superdex 200 HiLoad 16/60 prep grade size exclusion column with 20 mM Histidin/140 mM NaCl pH6.0 as mobile phase. Fractions containing the complex were pooled and concentrated to 19.4 mg/ml (DIG-Cy5 complex) and 19.9 mg/ml (DIG-PYY complex) with a centrifugal filtration device (Vivaspin 20, 30 kDa MWCO, GE Healthcare). The protein concentration of the DIG-Cy5 containing sample was determined by the formula 4A280−(A649×CF))×dilution factor)/ε. CF is the correction factor A280nm/A649nm which was determined as 0.008. Loading of the antibody with DIG-Cy5 was calculated as 1.2 moles of DIG-Cy5 per mole antibody with the formula: (A649nm/(εCy5×protein concentration M))×dilution factor. […] All samples were filtered with a PVDF syringe filter (0.22 μm pore size) under sterile conditions.
To analyze the influence on PK parameters of antibody-complexation of the digoxigenated peptide, 32.1 nmol of the peptide DIG-moPYY, or of the corresponding antibody complexated peptide in 20 mM Histidin/140 mM NaCl pH 6.0 were applied to 2 female mice (strain NRMI) for each substance. […] About 0.1 ml blood samples were collected after the following time points: 0.08 h, 2 h and 24 h for Mouse 1 and 0.08 h, 4 h 24 h for Mouse 2. Serum samples of at least 40 μl were obtained after 1 h at RT by centrifugation (9300×g, 3 min, 4° C.). Serum samples were stored at −80° C. […] The reason for that was that we had no direct means to detect the peptide in serum samples. Therefore, we devised a Western-Blot related assay to detect digoxigenated peptide in serum. In a first step, the serum samples were separated on reducing SDS-PAGE. Because sample preparation for that included exposure of the serum to high concentrations of SDS and reducing agents, Dig-peptides can become released from the (completely denatured/unfolded)<Dig> IgG. To mediate the release of peptide from the antibody complex and separate them by SDS-PAGE, 2 μl of each serum sample was diluted in 18 μl 20 mM Histidin/140 mM NaCl pH 6.0, mixed with 6.7 μl of 4×LDS sample buffer and 3 μl of 10× sample reducing agent (NuPAGE, Invitrogen) for 5 min at 95° C. […] Digoxigenated peptides were subsequently detected on the membrane with anti-digoxygenin antibodies. […] Chemiluminescence was detected with the LumiImager F 1 (Roche) with an exposure time of 20 min. […]

[3] = excitation and emission spectra of Cy5 derivatives; assay type: physicochemical
Text: To evaluate whether digoxigenation of Cy5 alters its fluorescence features, we compared the excitation and emission spectra of Cy5 and compared it with the spectra of the newly generated Dig-Cy5 and with Dig-Cy5 within a complex with bispecific antibodies.

Structure (SMILES): CC[C@H](C)[C@H](NC(C)=O)C(=O)N[C@@H](CCCCNC(=O)CCOCCOCCOCCNC(=O)CO[C@H]1CC[C@@]2(C)[C@H](CC[C@@H]3[C@@H]2C[C@@H](O)[C@]2(C)[C@@H](C4=CC(=O)OC4)CC[C@]32O)C1)C(=O)N1CCN(c2ccc3ncn(CC(=O)N[C@@H](CCCNC(=N)N)C(=O)N[C@@H](Cc4c[nH]cn4)C(=O)N[C@@H](Cc4ccc(O)cc4)C(=O)N[C@@H](CC(C)C)C(=O)N[C@@H](CC(N)=O)C(=O)N[C@@H](Cc4c[nH]c5ccccc45)C(=O)N[C@H](C(=O)N[C@H](C(=O)N[C@@H](CCCNC(=N)N)C(=O)N[C@@H](CCC(N)=O)C(=O)N(C)[C@@H](CCCNC(=N)N)C(=O)N[C@@H](Cc4ccc(O)cc4)C(N)=O)[C@@H](C)O)C(C)C)c(=O)c3c2)CC1 [<Dig> DIGmoPYY]
- biological activity in vitro compared to PEG-peptide (NPY2 receptor; cAMP assay): four fold better
- effect on food intake [1]: strikingly reduced the food-intake
- Dig-peptide signal in serum (Western Blot, in words) ([2]; 5 min after administration, listed as <DIG>-DIG-moPYY): strong signals
- Dig-peptide signal in serum (Western Blot, in words) ([2]; later time points up to 24 hrs after administration, listed as <DIG>-DIG-moPYY): still detectable with good signals

- Emission maximum [3]: 680 nm
- Excitation maximum [3]: 652 nm
Structure (SMILES): CCN1/C(=C/C=C/C=C/C2=[N+](CCCCCC(=O)O)c3ccc(S(=O)(=O)O)cc3C2(C)C)C(C)(C)c2cc(S(=O)(=O)[O-])ccc21 [Cy5]

Structure (SMILES): CC[C@H](C)[C@H](NC(C)=O)C(=O)N[C@@H](CCCCNC(=O)CCOCCOCCOCCNC(=O)CO[C@H]1CC[C@@]2(C)[C@H](CC[C@@H]3[C@@H]2C[C@@H](O)[C@]2(C)[C@@H](C4=CC(=O)OC4)CC[C@]32O)C1)C(=O)N1CCN(c2ccc3ncn(CC(=O)N[C@@H](CCCNC(=N)N)C(=O)N[C@@H](Cc4c[nH]cn4)C(=O)N[C@@H](Cc4ccc(O)cc4)C(=O)N[C@@H](CC(C)C)C(=O)N[C@@H](CC(N)=O)C(=O)N[C@@H](Cc4c[nH]c5ccccc45)C(=O)N[C@H](C(=O)N[C@H](C(=O)N[C@@H](CCCNC(=N)N)C(=O)N[C@@H](CCC(N)=O)C(=O)N(C)[C@@H](CCCNC(=N)N)C(=O)N[C@@H](Cc4ccc(O)cc4)C(N)=O)[C@@H](C)O)C(C)C)c(=O)c3c2)CC1 [DIG-moPYY]
- IC50 (NPY2 receptor): 0.42 nM
- Dig-peptide signal in serum (Western Blot, in words) ([2]; 5 min after administration): only in trace amounts
- Dig-peptide signal in serum (Western Blot, in words) ([2]; later time points up to 24 hrs after administration): no defined peptide band are detectable
